Data reported in patent US7648966B2, “Mannose-6-phosphonate compounds for the treatment of inflammatory diseases” (Pharmaxis Pty Limited, priority 2003, dated 2010).
“And” between values parts separate entries of the source, which are not always exact repeats. Equal values may be shown once.

Tests used:
[1] = tested on: picryl chloride-sensitized T lymphocyte migration into the right ear pinna; assay: Inhibition of T lymphocyte migration into extralymphatic tissue (picryl chloride-painted ear pinna) in vivo; parameters: species or system Balb/c mice; conditions: 5 mg/mouse IV; 9-10 hours after cell infusion
From the text: The foregoing methods are recognized and well understood by those skilled in the art and the underlying principles can be found in any immunology textbook such as those cited above. Here donor animals are sensitized to a self protein (in practice, skin is the easiest tissue to use) by chemically modifying the protein(s) in this tissue thereby allowing the chemical moiety to be ‘seen’ as ‘foreign’ tissue by the immune system. This is done by reacting the skin (“painting”) with a ‘hapten’ which is usually an alkylating or arylating agent that reacts covalently with and thereby modifies protein(s) in the skin. Seven to ten days following sensitization, spleens or draining LNs are taken from the donor animals. […] Within a short time of cell transfer sensitized T cells begin to accumulate in the hapten-modified tissue, 8-24 hours later the tissue can be removed and the cell accumulation assessed. In the case of fluorescently-labeled cells, their accumulation is assessed histologically or histochemically, and in the case of radiolabeled cells, accumulation is assessed by counting radioactive decay in a suitable device. […]
B lymphocytes were depleted as described in Example 3. The enriched lymphocyte population contained approximately 85-90% T lymphocytes and <1% B cells (determined by FACS analysis). […]

[2] = tested on: passively transferred EAE; assay: Passively transferred experimental autoimmune encephalomyelitis (EAE); type: in vivo, Lewis rats; conditions: for Clinical Scores (individual rats): 45 mg/kg/day by mini-osmotic pump; for Clinical Scores (individual rats) / Mean Score: scale 0 to 5
Experimental: To study the effect of the present agents in vivo on a disease that includes in its pathogenesis the migration of T lymphocytes into a specific tissue, the brain, experiments were performed in the Lewis rat model of passively transferred EAE. MBP-specific T lymphocyte cell lines were generated from the draining LNs of Lewis rats that had been immunized with MBP in CFA essentially according to the method of Ben-Nun et al., 1981, supra. Donor T lymphocytes were generated from female 10 to 12 week old Lewis rats weighing 150 to 200 g. These rats had been injected intradermally in each hind footpad with an emulsion of guinea pig MBP (gpMBP) prepared according to Deibler, G E et al., […]. Biochem. 2:139-165 (1972), incorporated herein by reference) in CFA ([…]). The adjuvant emulsion was prepared by emulsifying equal volumes of a mixture of light mineral oil (Sigma) and a solution of the gpMBP in normal saline (0.5 mg/ml) and Mycobacterium butyricum (4 mg/ml; Difco). Thus, each rat received was 50 μg of MBP and 400 μg of M. butyricum. Approximately 11 days following injection the rats were euthanized and the draining LNs (popliteal and inguinal) were removed aseptically by blunt dissection and placed into lymphocyte culture medium as described above. A single cell suspension was prepared from the LNs as described above for spleen. The cells were washed twice in culture medium and any red blood cells were lysed with ammonium chloride as above. These cells, at concentration of 5×10^6/ml were cultured for 72 hours in the presence of MBP (0.06 mg/ml) at 37° C. in a humidified atmosphere containing 7.5% carbon dioxide. The cells were collected and the lymphoblasts were isolated by centrifugation on a Ficoll (Pharmacia, Uppsala, Sweden) gradient in an identical manner to that described by Ben Nun et al. supra. The fraction containing 90% lymphoblasts was cultured further in complete DMEM to which was added (15% v/v) a culture supernatant containing a mixture of growth factors (supernatant of concanavalin A-stimulated lymphocytes), 10% fetal calf serum, nonessential amino acids (Bio-Lab, Jerusalem, Israel). No antigen (MBP) was added. The cells were originally plated in 100 mm petri dishes at a concentration of 2×10^5 cells/mil and replated every 3 or 4 days. Prior to transfer into Lewis rat recipients, the cells were restimulated with antigen, MBP (0.01 mg/ml), and irradiated syngeneic thymocytes, as antigen-presenting cells, for 4 days. These cultured, stimulated T lymphocytes were highly encephalitogenic: as few as 5×10^5 cells could induced disease in naïve Lewis rats. In a typical experiment, a group of 5 female Lewis rats, approximately 9 weeks old, weighing 110±15 grams was anesthetized with diethyl ether and implanted with mini-osmotic pumps (Alzet 2002, Alza Corp., Palo Alto Calif., USA) containing 1-(2,4,-diimethyl phenyl)-6-phosphono-mannoside dissolved in normal saline at a concentration that delivered the drug at a rate of 45 mg/kg/day. A second group of 5 control animals were implanted under anesthesia with a similar pump containing normal saline. Just prior to recovering from the anesthetic, each animal received 5×10^5 cells of the above encephalitogenic T cell line iv in 0.2 ml of normal saline. […] The severity of EAE for each group of rats was calculated as a Disease Index (DI) which is (for those animals developing disease): [formula] This calculation allows a more complete assessment of the disease by incorporating both speed of onset and clinical severity and duration of the disease. […] In an identically designed experiment, rats were sacrificed on day 6 after T lymphocyte transfer and their spinal cords were harvested for histological assessment. Rats were deeply anesthetized (Nembutal) and perfused with 30 ml saline followed by 60 ml 10% neutral buffered formalin. Spinal cords were removed, fixed for 7 days in 10% formalin and embedded for sectioning. […]

[3] = 45 mg/kg/day, vs saline controls

Question: What does the source list for `Cc1ccc(O[C@H]2O[C@H](CCP(=O)(O)O)[C@@H](O)[C@H](O)[C@@H]2O)c(C)c1`?
Answer: Percent inhibition of T cell migration (right ear pinna) [1]: 56.1%; animals that developed disease ([2]; 45 mg/kg/day, control 5/5): 3/5; DI = Group Disease Index ([2]; 45 mg/kg/day, control group DI 160): 40; duration of maximum clinical scores ([2]; 45 mg/kg/day, controls two consecutive days): none of the 3 drug treated animals that developed symptoms had maximum clinical scores for more than one day; disease onset [2, 3]: disease onset was delayed; disease severity [2, 3]: disease severity was lower than that observed in the controls; Clinical Scores (individual rats) ([2]; Day 4): 0; Mean Score ([2]; Day 4, 45 mg/kg/day): 0; Clinical Scores (individual rats) ([2]; Day 5, listed as 1-(2,4,-dimethyl phenyl)-6-phosphono-mannoside, 45 mg/kg/day): 1 (3×) and 0 (2×); Mean Score ([2]; Day 5, 45 mg/kg/day): 0.6; Clinical Scores (individual rats) ([2]; Day 6, listed as 1-(2,4,-dimethyl phenyl)-6-phosphono-mannoside, 45 mg/kg/day): 2 (2×) and 0 (2×) and 1; Mean Score ([2]; Day 6, 45 mg/kg/day): 1; Clinical Scores (individual rats) ([2]; Day 7, listed as 1-(2,4,-dimethyl phenyl)-6-phosphono-mannoside, 45 mg/kg/day): 0 (3×) and 1 (2×); Mean Score ([2]; Day 7, 45 mg/kg/day): 0.4; lesions/section in the most affected animal ([2]; day 6 after T lymphocyte transfer, histology): no more than 8 lesions/section; average number of spinal cord lesions ([2]; day 6 after T lymphocyte transfer, histology, control approximately 15 lesions/section): 3.5 lesions
